# Experimental data: patent publication US6270780A, “Cosmetic compositions containing resveratrol” (Chesebrough-Pond's USA Co., division of Conopco, priority 1998, dated 2001)
# Where two headings read alike, the source gives them in different places.
# What was measured:
# cyclo-oxygenase = conditions: known; cited from earlier work
# [1] = tested on: Normal human keratinocytes; experiment: 3H-thymidine incorporation (DNA synthesis) / proliferation of keratinocytes; type: cell-based
# Description: The incorporation of ^3 H-thymidine by cultured cells was used as an assay of cell proliferation (both for ZR75 cells and for keratinocytes). Thymidine is one of four deoxynucleosides which are the monomeric units of DNA. Prior to cell division of a somatic cell, the complete genome of the cell undergoing cell division is replicated. This involves large scale DNA synthesis by the cell and enables both daughter cells to receive identical copies of the genetic material. When ^3 H-thymidine is included in the culture media of cells which are synthesizing DNA in preparation for cell division then the labeled thymidine is incorporated into the newly synthesized DNA. The extent of incorporation of ^3 H-thymidine into a population of cells is proportional to the rate of DNA synthesis by this population of cells and therefore an indication of their cellular proliferation.
# 1. Normal human keratinocytes isolated from neonatal foreskins by trypsin treatment were grown in Dulbecco's modified Eagle's medium (DME)/5% fetal calf serum in the presence of mitomycin C treated 3T3 mouse fibroblasts for establishing dividing keratinocyte colonies. Keratinocytes were grown under the above condition until their third passage.
# 2. For the experiments, third passage keratinocytes were plated into a serum-free keratinocyte growth medium (KGM; obtained from Clonetics, San Diego, Calif.) containing 0.09 mM calcium. About 30,000 cells were plated into each well of 6 well cell culture plates and grown for 5 days, until the cells reach about 40% confluence.
# 3. Medium was changed to fresh medium (KBM; obtained from Clonetics) and resveratrol at various concentrations as indicated in Table 2 was added to the medium from a DMSO (Dimethylsulfoxide) stock solution. The final DMSO concentration in the cultures was 0.1%. Control cultures received no resveratrol but were dosed with 0.1% DMSO. Each concentration was tested in three separate wells. After four hours, 1 μCi of ^3 H-thymidine (Amersham Corp., Sp activity 40 Ci/mmol) was added to 1 ml of medium in each well. The cells were incubated for 2 hours. The amount of ^3 H-thymidine associated with the cellular DNA of keratinocytes was assessed as described below.
# 4. The medium was aspirated, and the wells washed with 1 ml PBS. The DNA and proteins of the cells in the plate were then precipitated by adding 1 ml of ice-cold 10% TCA. The plates were left on ice for 30 minutes to complete the precipitation process. TCA was then aspirated and each well was then washed 4 times with 5% TCA. The cells in the wells were dissolved in 0.5 ml of […] sodium hydroxide. 200 μl was then transferred to a scintillation vial for assessing thymidine incorporation and 25 μl was used for a protein assay using BCA protein assay reagent as described below. 5 ml of a scintillation fluid (Scintiverse) was added to the rest of the solution in the vial, and the vials were counted in a scintillation counter to determine the amount of radioactivity in each vial.
# BCA (Bicinchoninic Acid)--Protein Assay
# 25 μl of cell suspension were placed in a 96 well plate. Standards of BSA (bovine serum albumin) in 0.1N Sodium Hydroxide were also pipetted in triplicate in the same 96 well plate. Pierce BCA protein assay reagent was added (200 μl/well) and plate was incubated for 2 hours at room temperature. Absorbance was read at a wavelength of 570 nm on a Dynatech MR7000 plate reader.
# The DNA synthesis rate was then calculated as cpm ^3 H-thymidine incorporated into total cellular DNA/μg of cell protein for each individual well. Mean and standard deviation for each group were also calculated. These numbers were also expressed as percent of control wells. Each data point is expressed as mean of triplicate wells±standard deviation.
# The results that were obtained are summarized in Table 2. p values of less than […] were considered to indicate statistical significance.
# Example 2 was repeated at various additional concentrations of resveratrol.
smiles,measurement,setting,value
"Oc1ccc(/C=C/c2cc(O)cc(O)c2)cc1 [Resveratrol, 3,4'5-stilbenetriol]",cyclo-oxygenase inhibition,cyclo-oxygenase,known cyclo-oxygenase inhibitor
same,inhibition at 50 µM,"[1]; Homo sapiens, Keratinocyte, Table 2 Experiment 1, 50 μM",98%
same,inhibition at 0.78 µM,"[1]; Homo sapiens, Keratinocyte, Table 2 Experiment 2, 0.78 μM",33%
same,inhibition at 1.56 µM,"[1]; Homo sapiens, Keratinocyte, Table 2 Experiment 2, 1.56 μM, read-out: % inhibition (DNA synthesis)",48%
same,inhibition at 3.12 µM,"[1]; Homo sapiens, Keratinocyte, Table 2 Experiment 2, 3.12 μM",70%
same,inhibition at 6.25 µM,"[1]; Homo sapiens, Keratinocyte, Table 2 Experiment 2, 6.25 μM",86%
same,inhibition at 12.5 µM,"[1]; Homo sapiens, Keratinocyte, Table 2 Experiment 2, 12.5 μM",94%
same,inhibition at 25 µM,"[1]; Homo sapiens, Keratinocyte, Table 2 Experiment 2, 25 μM",97%
same,inhibition at 50 µM,"[1]; Homo sapiens, Keratinocyte, Table 2 Experiment 2, 50 μM",97%
same,inhibition at 0.1 µM,"[1]; Homo sapiens, Keratinocyte, Table 3, 0.1 μM",5%
same,inhibition at 0.2 µM,"[1]; Homo sapiens, Keratinocyte, Table 3, 0.2 μM",12%
same,inhibition at 0.3 µM,"[1]; Homo sapiens, Keratinocyte, Table 3, 0.3 μM",7%
same,inhibition at 0.4 µM,"[1]; Homo sapiens, Keratinocyte, Table 3, 0.4 μM",14%
same,inhibition at 0.6 µM,"[1]; Homo sapiens, Keratinocyte, Table 3, 0.6 μM",6%
same,inhibition at 0.8 µM,"[1]; Homo sapiens, Keratinocyte, Table 3, 0.8 μM",30%
same,inhibition at 1 µM,"[1]; Homo sapiens, Keratinocyte, Table 3, 1.0 μM",40%
same,inhibition at 2 µM,"[1]; Homo sapiens, Keratinocyte, Table 3, 2.0 μM",59%
same,inhibition at 1.56 µM,"[1]; Homo sapiens, Keratinocyte, 1.56 μM, read-out: reduced keratinocyte proliferation",~50%
same,DNA synthesis (cpm/μg protein),"[1]; Table 2 Experiment 1, 50 μM",0.62 ± 0.09 cpm/μg protein
same,DNA synthesis (cpm/μg protein),"[1]; Table 2 Experiment 2, 0.78 μM",11.57 ± 1.7 cpm/μg protein
same,DNA synthesis (cpm/μg protein),"[1]; Table 2 Experiment 2, 1.56 μM",8.89 ± 1.12 cpm/μg protein
same,DNA synthesis (cpm/μg protein),"[1]; Table 2 Experiment 2, 3.12 μM",5.11 ± 0.27 cpm/μg protein
same,DNA synthesis (cpm/μg protein),"[1]; Table 2 Experiment 2, 6.25 μM",2.45 ± 0.56 cpm/μg protein
same,DNA synthesis (cpm/μg protein),"[1]; Table 2 Experiment 2, 12.5 μM",1.07 ± 0.11 cpm/μg protein
same,DNA synthesis (cpm/μg protein),"[1]; Table 2 Experiment 2, 25 μM",0.58 ± 0.05 cpm/μg protein
same,DNA synthesis (cpm/μg protein),"[1]; Table 2 Experiment 2, 50 μM",0.44 ± 0.12 cpm/μg protein
same,DNA synthesis (cpm/μg protein),"[1]; Table 3, 0.1 μM",60.4 ± 4.1 cpm/μg protein
same,DNA synthesis (cpm/μg protein),"[1]; Table 3, 0.2 μM",56.3 ± 3.0 cpm/μg protein
same,DNA synthesis (cpm/μg protein),"[1]; Table 3, 0.3 μM",58.8 ± 0.4 cpm/μg protein
same,DNA synthesis (cpm/μg protein),"[1]; Table 3, 0.4 μM",54.2 ± 1.2 cpm/μg protein
same,DNA synthesis (cpm/μg protein),"[1]; Table 3, 0.6 μM",59.3 ± 5.5 cpm/μg protein
same,DNA synthesis (cpm/μg protein),"[1]; Table 3, 0.8 μM",44.4 ± 2.6 cpm/μg protein
same,DNA synthesis (cpm/μg protein),"[1]; Table 3, 1.0 μM",37.7 ± 4.0 cpm/μg protein
same,DNA synthesis (cpm/μg protein),"[1]; Table 3, 2.0 μM",25.7 ± 2.4 cpm/μg protein
same,inhibition of DNA synthesis,"[1]; both experiments, 50 μM",inhibited DNA synthesis completely
same,DNA synthesis of keratinocytes,[1]; concentrations as low as 1.56 μM,decreased DNA synthesis of keratinocytes significantly
same,reducing keratinocyte proliferation,[1]; concentrations lower than 0.8 μm (0.000018 wt. %),not effective at reducing keratinocyte proliferation
